Results from US20040121965A1, “Method of treating resistant tumors” (Wyeth Holdings Corporation, priority 2002, published 2004).
Like-named read-outs stand apart in the source and are kept apart here.

What was measured:
MCF7 = experiment: Cell survival assay (SRB), MCF7; assay type: cell-based; settings: Homo sapiens, MCF7, 72 h
Description: (§1) 2.2. Cell Survival Assay: Standard Pharmacological Test Procedure. […] Compounds are incubated with cells for 3 days.

MDA-MB-435 = experiment: Cell survival assay (SRB), MDA-MB-435; assay type: cell-based; settings: Homo sapiens, 72 h; MDA-MB-435, breast; 3 days, SRB staining
Description: as §1

SKBR3 = experiment: Cell survival assay (SRB), SKBR3; assay type: cell-based; settings: Homo sapiens, SK-BR-3, 72 h; SKBR3, breast; 3 days, SRB staining
Description: as §1

CX-1 = experiment: Cell survival assay (SRB), CX-1; assay type: cell-based; settings: Homo sapiens, 72 h; CX-1, colon; 3 days, SRB staining
Description: as §1

Moser = experiment: Cell survival assay (SRB), Moser; assay type: cell-based; settings: 72 h
Description: as §1

S1 = experiment: Cell survival assay (SRB), S1; assay type: cell-based; settings: Homo sapiens
Source text: Cells lines with previously known mechanisms of resistance. […] Res. 8: 207-218,1996); KB-3-1 (parental derived from an epidermoid carcinoma), KB-8.5, KB-V1 (Akiyama S-I, Fojo A, Hanover J A, Pastan I, Gottesman M M. Isolation and genetic characterization of human KB cell lines resistant to multiple drugs. Somatic Cell Mol. Gen., 11: 117-126,1985; Shen D-W, Cardarelli C, Hwang J, Cornwell M, Richert N, Ishii S, Pastan I, Gottesman MM. […] J. Biol. Chem., 261: 7762-7770, 1986); and HL-60 (parental derived from human leukemia) and HL60/AR (McGrath T., Center M. S. Adriamycin resistance in HL60 cells in the absence of detectable P-glycoprotein. Biochem. Res. Commun., 145:1171-1176,1987); A549 and A549.EpoB40 (He L., Yang C.-P.H., Horwitz S. B. Mutations in p-tubulin map to domains involved in regulation of microtubule stability in epothilone-resistant cell lines. Molecular Cancer Therapeutics. 1: 3-10, 2001). HCT-15 human colon carcinoma and DLD-1 human colon carcinoma are obtained from American Tissue Culture Collection. The MX-1W carcinoma is a Wyeth variant orginally obtained as MX-1 breast carcinoma from the National Cancer Institute. Cell lines selected for resistance to Representative Example 129. KB-3-1 cells are selected for resistance to Example 129 by chronically exposing cells to increasing concentrations of Example 129.
2.2. Cell Survival Assay: Standard Pharmacological Test Procedure. The concentration of candidate inhibitor required to inhibit 50% of cell growth (IC50) is done according to previously reported methods. […] Compounds are serially diluted into media as 2× stocks and 100 μl added to cells in duplicate. Compounds are incubated with cells for 3 days. At the end of the incubation period the sulforhodamine B (SRB) assay, which measures protein content as an assessment of cell survival, is performed as described previously (Skehan P, Storeng R, Scudiero D, Monks A, McMahon J, Vistica D, Warren J T, Bokesch H, Kenney S, Boyd MR. New calorimetric cytotoxicity assay for anticancer-drug screening. J Natl Cancer Inst 1990 Jul 4;82(13):1107-12) with some modification as follows. For KB-3-1 cells with 20% FCS, media is gently decanted and replaced with 200 μl of serum-free media mixed with cold 50% TCA for a final concentration of 10% TCA. The plates are incubated for 1 hr at 4° C., followed by washing 5 times in cold distilled water, then air dried overnight. The fixed cells are stained for 10 min with 80 μl of 0.04% SRB solution prepared in 1% glacial acetic acid. Stain is discarded and plates washed 5 times in 1% glacial acetic acid, then air-dried until completely dry. Stained cell product is dissolved in 150 μl of 10 mM Trizma Base and placed on a shaker for 20 minutes until fully dissolved. Absorbance is read on a Victor V multi-label plate reader (Perkin Elmer, Gaithersburg, Md.).

SKOV3 = experiment: Cell survival assay (SRB), SKOV3; assay type: cell-based; settings: Homo sapiens, SK-OV-3, 72 h
Description: as §1

Panc1 = experiment: Cell survival assay (SRB), Panc1; assay type: cell-based; settings: Homo sapiens, PANC-1, 72 h
Description: as §1

DU145 = experiment: Cell survival assay (SRB), DU145; assay type: cell-based; settings: Homo sapiens, DU-145, 72 h; DU145, prostate; 3 days, SRB staining
Description: as §1

MAP-associated tubulin = experiment: Polymerization of MAP-associated tubulin, cell-free spectrophotometric assay; assay type: biochemical
cellular microtubules = experiment: Cellular microtubules by immunofluorescence microscopy; assay type: cell-based
[1] = Mitotic arrest and apoptosis; assay type: cell-based; settings: at 24 hr; followed by apoptosis (48 hr)
Description: d) induces mitotic arrest (3-10 nM at 24 hr) followed by apoptosis (48 hr),

NCI-H838 = experiment: Cell survival assay (SRB), NCI-H838; assay type: cell-based; settings: Homo sapiens, 72 h; NCI-H838, NSCLC; 3 days, SRB staining
Description: as §1

HCT-15 tumor = experiment: Growth of tumors in nude mice, HCT-15 xenograft; assay type: in vivo; settings: paclitaxel 60 mg/kg IV, days 1,5,9
Source text: 2.4. Growth of Tumors in Nude Mice.

CN[C@H](C(=O)N[C@H](C(=O)N(C)[C@H](/C=C(\C)C(=O)O)C(C)C)C(C)(C)C)C(C)(C)c1ccccc1 [Example 129, N,β,β-trimethyl-L-phenylalanyl-N^1-[(1S,2E)-3-carboxy-1-isopropylbut-2-enyl]-N^1,3-dimethyl-L-valinamide]
IC50 (MCF7): 7.3 ± 2.3 nM
IC50 (MDA-MB-435): 0.5 nM
IC50 (SKBR3): 2.3 nM
IC50 (CX-1): 2.3 nM
IC50 (Moser): 5.3 ± 4.1 nM
IC50 (S1; 72 h): 3.7 ± 2 nM
IC50 (S1; read-out: S1 IC50, nM (N)): 3.7 ± 2 nM
IC50 (SKOV3): 1.7 nM
IC50 (Panc1): 2.9 ± 0.1 nM
IC50 (DU145): 2 nM
polymerization of MAP-associated tubulin (MAP-associated tubulin): inhibitor of polymerization
effect on cellular microtubules (cellular microtubules): depolymerizes cellular microtubules
concentration that induces mitotic arrest [1]: 3 to 10 nM

CC(=O)O[C@H]1C(=O)[C@@]2(C)[C@H]([C@H](OC(=O)c3ccccc3)[C@]3(O)C[C@H](OC(=O)[C@H](O)[C@@H](NC(=O)c4ccccc4)c4ccccc4)C(C)=C1C3(C)C)[C@]1(OC(C)=O)CO[C@@H]1C[C@@H]2O [paclitaxel, reference compound]
IC50 (Moser; Moser, colon, 3 days, SRB staining, read-out: IC50): 1590 ± 1990 nM
IC50 (S1; 72 h, S1, colon, 3 days, SRB staining, read-out: IC50): 92 ± 100 nM
IC50 (S1; S1 parental, Table 5, read-out: S1 IC50, nM (N)): 92 ± 100 nM
IC50 (NCI-H838): 6.3 ± 0.6 nM
IC50 (SKOV3; SKOV3, ovarian, 3 days, SRB staining, read-out: IC50): 9 nM
IC50 (Panc1; Panc1, pancreatic, 3 days, SRB staining, read-out: IC50): 28.9 nM
% T/C on day 9 (HCT-15 tumor): 114%
% T/C on day 13 (HCT-15 tumor): 106%
% T/C on day 17 (HCT-15 tumor): 123%
% T/C on day 21 (HCT-15 tumor): 110%
